Values after ≈ are worked out from the molar mass of the structure shown. Where two headings read alike, the source gives them in different places.

The nature of data set [1]: Solubility of revaprazan-containing solid dispersion in purified water. Type of data set: physicochemical. As to conditions: thermodynamic from solid, 25° C., solid dispersion containing 1 g revaprazan in 50 ml, stirred up to 6 hours, UV 270 nm. On the procedure:
Solubility of a revaprazan-containing solid dispersion was measured in purified water. A solid dispersion containing 1 g of revaprazan was added to a beaker containing 50 ml of purified water, which was then strongly stirred using a magnetic stirrer at 25° C. in a water bath for 6 hours. After 1, 2, and 6 hours, each sample was collected and filtered using a 0.45 μm filter. The filtrate was diluted with methanol having such an amount that absorbance of the filtrate is in the range from 0.2 to 1.0. Then, absorbance of the diluted filtrate was measured at 270 nm using a UV spectrophotometer (Agilent 8453, Agilent technologies, USA). From the obtained absorbance value, concentrations of revaprazan were obtained using a standard curve.
About 20 mg of revaprazan standard was dissolved in methanol until the total volume of the solution reached 10 ml. 1 ml of the resultant solution was added to a 100 ml flask and then purified water was added thereto to obtain a standard stock solution. The standard stock solution was diluted with purified water to obtain 2 μg/ml, 5 μg/ml, 8 μg/ml, and 10 μg/ml of standard solution. Each absorbance of the standard solutions was measured at an absorption maximum wavelength of 270 nm to obtain a standard curve. The standard curve was moderately linear passing through almost (0.0) (coefficient of correlation r^2>0.98).

Data set [2] in a line: Adhesiveness and agglutination test (Carr's index from bulk and tapped density). Type of data set: physicochemical. On the procedure: The bulk density and tapped density of revaprazan powder and the surface-modified solid dispersions prepared according to Examples 3 and 6 were measured and their Carr's indexes were obtained in order to measure flowability thereof. About 3 g of a solid dispersion was carefully added to a plastic measuring cylinder and the volume thereof was measured to obtain the bulk density. And then, this was subjected to tapping 3,000 times using a tapped density meter to measure the volume and the tapped density was obtained. From the obtained bulk density and tapped density, Carr's index was calculated in order to evaluate flowability.

The conditions of data set [3]: background art; cited from earlier work.

As for `Cc1nc(Nc2ccc(F)cc2)nc(N2CCc3ccccc3C2C)c1C` (stereo not shown) [Revaprazan powder, 5,6-dimethyl-2-(4-fluorophenylamino)-4-(1-methyl-1,2,3,4-tetrahydroisoquinolin-2-yl)pyrimidine], the concentration in solution in data set [1] (solubility) came to 173 µg/mL (≈ 477 µM). In addition, the “Carr's index” value in data set [2] was no less than 40%; in data set [2] (from bulk density and tapped density (3,000 taps), flowability) it was 41.2. Further, the water-solubility entry in data set [3] was “less than 0.2 mg/mL”.

The values are drawn from US8663658B2, “Revaprazan-containing solid dispersion and process for the preparation thereof” (Yuhan Corporation, priority 2006, dated 2014).
